Experimental data from patent US20210253598A1, “ARYL ANNULATED MACROCYCLIC INDOLE DERIVATIVES” (priority 2017, published 2021).
Counter-ions that a name gives are not always drawn. Like-named read-outs stand apart in the source and are kept apart here.

Assays:
[1] = target: MCL-1 (Homo sapiens, UniProt Q07820, K194A/K197A/R201A); experiment: Protein-protein interaction assay MCL-1/Noxa BH3 peptide, TR-FRET (MCL-1 assay, Assay 1); type: binding; conditions: MCL-1 Assay [M] (median), MBP-MCL-1 / Noxa BH3 peptide
MCL-1, sequence (Q07820 173-321 K194A/K197A/R201A, looked up): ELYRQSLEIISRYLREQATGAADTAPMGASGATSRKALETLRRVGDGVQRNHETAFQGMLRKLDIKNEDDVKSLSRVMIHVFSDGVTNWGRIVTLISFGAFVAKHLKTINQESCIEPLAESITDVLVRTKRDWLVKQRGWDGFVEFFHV
Description: The dose-dependent inhibition by the compounds described in this invention of the interaction between MCL-1 and the BH3 domain of Noxa (both human) was determined using a steady state binding competition assay with time-resolved fluorescence energy transfer (TR-FRET) readout. For that purpose MCL-1 (amino acids 173-321, N-terminal fused to Maltose Binding Protein (MBP), SEQ ID 1) and a synthetic Noxa BH3-derived peptide of sequence Biotin-PEG2-PEG2-PAELEVE-Nva-[…]-amide (SEQ ID 2) served as protein receptor and tracer ligand respectively. The MBP-MCL-1 was purchased from Beryllium (Bedford, Mass., USA). The expression and purification of this protein construct has been described elsewhere (DOI:10.1371/journal.pone.0125010). The Noxa BH3-derived peptide can be obtained from e.g. Biosyntan (Berlin, Germany).
For that, 100-fold concentrated DMSO solutions were prepared by serial dilutions (1:3.4) of a 2 mM stock solution in a clear, 384-well microtiter plate (Greiner Bio-One, Frickenhausen, Germany). From there, 50 nl were transferred in a dark test plate (Greiner Bio-One, Frickenhausen, Germany). The assay was initiated by addition of 2 μl of a 2,5-fold concentrated MBP-MCL-1 solution (usually for a 1 nM end concentration in 5 μl reaction volume) in aqueous assay buffer [50 mM Tris/HCl pH 7, 100 mM sodium chloride (NaCl), 50 mM potassium fluoride (KF), 0.005% Tween-20, 2 mM DTT, 0.1% bovine gamma globulin (BGG)] to the compounds in the assay plate. This was followed by a 10-minute incubation step at 22° C. for pre-equilibration of the putative complex between MBP-MCL-1 and the compounds.
The mixture was incubated in the dark for one hour at 22° C. and then overnight at 4° C. The formation of MCL-1/Noxa complexes was determined by measuring the resonance energy transfer of the anti-MBP-Eu-cryptate antibody to the streptavidin-XL665 present in the reaction.
The resulting data (ratio) were normalized, taking 0% inhibition as the mean value of control measurements (usually 32 data points) where all reagents were included. In this case 50 nl DMSO were used instead of compounds. […] IC50 values were determined by regression analysis based on a 4 parameter equation (minimum, maximum, IC50, Hill; Y=Max+(Min−Max)/(1+(X/IC50)^Hill) using the Screener Software (Genedata).

[2] = test system: SUDHL5; experiment: Induction of caspase-3/7 activity in SUDHL5 cells (Assay 4); type: cell-based; conditions: SUDHL5, 3 hours treatment, Caspase-Glo 3/7, median, read-out: Caspase SUDHL5 [M] (median)
Description: (§1) Induction of Caspase-3/7 Activity Upon Treatment of Cells with Selected Compounds
(§2) The BH3-domain of MCL-1 sequesters pro-apoptotic proteins, thereby inhibiting apoptosis. In contrast, MCL-1 inhibitors are expected to antagonize this effect leading to an increase in apoptosis, which can be determined by measuring the activity of caspase-3/7.
(§3) The activity of caspase-3/7 was determined in DLBCL (Diffuse large B-cell lymphoma) cell lines (SUDHL5 and SUDHL10) upon treatment with different compounds, using the Caspase-Glo® 3/7 reagent from Promega (G8092).
(§4) As a control, medium without cells was also added to the plate. Cells were incubated in a humidified incubator at 37° C. overnight.
(§5) Rim wells were excluded. The cells were incubated for 3 hours in a humidified incubator at 37° C. After this incubation, 30 μl of Caspase-Glo® 3/7 reagent (Promega G8092) was added to each well using the Multidrop Combi Reagent Dispenser, followed by 1 hour incubation at 37° C. Finally, luminescence was read at 0.1 ms, with a gain of 3000 using the PHERAstar FS microplate reader (BMG Labtech).
(§6) For the evaluation of the results, the background measured with “medium-only” was subtracted from all other values. Then, the values were normalized to DMSO-only treated cells (every value was divided by the mean of the DMSO control).

[3] = test system: SUDHL10; experiment: Induction of caspase-3/7 activity in SUDHL10 cells (Assay 4); type: cell-based; conditions: SUDHL10, 3 hours treatment, Caspase-Glo 3/7, median, read-out: Caspase SUDHL10 [M] (median)
Description: as §1, §2, §3, §4, §5, §6

[4] = test system: SUDHL5; experiment: Induction of cytotoxicity in SUDHL5 cells, CellTiter-Glo (Assay 6); type: cell-based
Description: (§7) Induction of Cytotoxicity Upon Treatment of Cells with Selected Compounds
(§8) In principle, compounds that induce apoptosis will concomitantly induce cell cytotoxicity. Therefore, cytotoxicity assays were run in parallel in SUDHL5 and SUDHL10 cells.
(§9) As a control, medium without cells was also added to the plate. Cells were incubated in a humidified incubator at 37° C. overnight. […] Rim wells were excluded. The cells were incubated for 5 hours in a humidified incubator at 37° C. After this incubation, 30 μl of CellTiter-Glo® Luminescent Cell Viability reagent (Promega, G7573) was added to each well using the Multidrop Combi Reagent Dispenser, followed by 15 minutes incubation on a shaker at room temperature. Finally, luminescence was read at 0.1 ms, with a gain of 3000 using the PHERAstar FS microplate reader (BMG Labtech).

[5] = test system: SUDHL10; experiment: Induction of cytotoxicity in SUDHL10 cells, CellTiter-Glo (Assay 6); type: cell-based
Description: as §7, §8, §9

[6] = SUDHL5, 5 hours incubation, median, read-out: Cytotox SUDHL5 [M] (median)
[7] = SUDHL10, 5 hours incubation, median, read-out: Cytotox SUDHL10 [M] (median)
[8] = Homo sapiens, SU-DHL10, 5 h, SUDHL10, 5 hours incubation, median, read-out: Cytotox SUDHL10 [M] (median)

SMILES | IC50 [1] [M] | EC50 [2] [M] | EC50 [3] [M] | EC50 ([2]; Homo sapiens, SU-DHL-5, 3 h) [M] | EC50 ([3]; Homo sapiens, SU-DHL10, 3 h) [M] | IC50 [4, 6] [M] | IC50 [5, 7] [M] | IC50 [5, 8] [M] | IC50 ([4]; read-out: Cytotox SUDHL5 [M] (median), SUDHL5, 5 hours incubation) | IC50 ([5]; read-out: Cytotox SUDHL10 [M] (median), SUDHL10, 5 hours incubation)
Cc1c2c(nn1C)CN(S(=O)(=O)c1ccc(N3CCOCC3)nc1)Cc1ccccc1Cn1c(C(=O)O)c(CCCOc3cccc4ccccc34)c3cccc-2c31 (single isomer, unassigned; enantiomer 1) [Example 18, (+)-4,5-Dimethyl-8-{[6-(morpholin-4-yl)pyridin-3-yl]sulfonyl}-17-[3-(naphthalen-1-yloxy)propyl]-7,8,9,14-tetrahydro-5H-indolo[1,7-bc]pyrazolo[4,3-e][2,8]benzodiazacycloundecine-16-carboxylic Acid (Enantiomer 1)] | 2.9e-08 | 9.2e-07 | 5.2e-06 | – | – | 1.4e-06 | 3.8e-06 | – | – | –
Cc1c2c(nn1C)CNCc1ccccc1Cn1c(C(=O)O)c(CCCOc3cccc4ccccc34)c3cccc-2c31 (single isomer, unassigned; enantiomer 2) [Example 13, 4,5-Dimethyl-17-[3-(naphthalen-1-yloxy)propyl]-7,8,9,14-tetrahydro-5H-indolo[1,7-bc]pyrazolo-[4,3-e][2,8]benzodiazacycloundecine-16-carboxylic acid-Trifluoroacetic Acid Salt (Enantiomer 2)] | 1.7e-07 | 1.4e-05 | > 3.3e-05 | – | – | – | – | – | 1.7e-05 | 2.5e-05
Cc1c2c(nn1C)CN(S(=O)(=O)c1ccc(N3CCOCC3)nc1)Cc1ccccc1Cn1c(C(=O)O)c(CCCOc3cccc4ccccc34)c3cccc-2c31 (single isomer, unassigned; enantiomer 2) [Example 19, (−)-4,5-Dimethyl-8-{[6-(morpholin-4-yl)pyridin-3-yl]sulfonyl}-17-[3-(naphthalen-1-yloxy)propyl]-7,8,9,14-tetrahydro-5H-indolo[1,7-bc]pyrazolo[4,3-e][2,8]benzodiazacycloundecine-16-carboxylic Acid (Enantiomer 2)] | 9.4e-07 | 1.7e-05 | > 3.3e-05 | – | – | 2.3e-05 | > 3.3e-05 | – | – | –
Cc1c2c(nn1C)CN(C(=O)CC1CCOCC1)Cc1ccccc1Cn1c(C(=O)O)c(CCCOc3cccc4ccccc34)c3cccc-2c31 (single isomer, unassigned; enantiomer 2) [Example 23, (+)-4,5-Dimethyl-17-[3-(naphthalen-1-yloxy)propyl]-8-(tetrahydro-2H-pyran-4-ylacetyl)-7,8,9,14-tetrahydro-5H-indolo[1,7-bc]pyrazolo[4,3-e][2,8]benzodiazacycloundecine-16-carboxylic Acid (Enantiomer 2)] | 3.9e-08 | 4.2e-06 | 1.2e-05 | – | – | 4.4e-06 | 1.1e-05 | – | – | –
Cc1c2c(nn1C)CN(C(=O)NC1CCOCC1)Cc1ccccc1Cn1c(C(=O)O)c(CCCOc3cccc4ccccc34)c3cccc-2c31 (single isomer, unassigned; enantiomer 2) [Example 26, (−)-4,5-Dimethyl-17-[3-(naphthalen-1-yloxy)propyl]-8-(tetrahydro-2H-pyran-4-ylcarbamoyl)-7,8,9,14-tetrahydro-5H-indolo[1,7-bc]pyrazolo[4,3-e][2,8]benzodiazacycloundecine-16-carboxylic Acid (Enantiomer 2)] | 3.8e-08 | 1.8e-05 | > 3.3e-05 | – | – | 1.6e-05 | > 3.3e-05 | – | – | –

Further compounds by falling IC50 [1], results first:

IC50 [1] [M] | EC50 [2] [M] | EC50 [3] [M] | EC50 ([2]; Homo sapiens, SU-DHL-5, 3 h) [M] | EC50 ([3]; Homo sapiens, SU-DHL10, 3 h) [M] | SMILES | IC50 [4, 6] [M] | IC50 [5, 7] [M] | IC50 [5, 8] [M] | IC50 ([4]; read-out: Cytotox SUDHL5 [M] (median), SUDHL5, 5 hours incubation) | IC50 ([5]; read-out: Cytotox SUDHL10 [M] (median), SUDHL10, 5 hours incubation)
6.5e-07 | 1.4e-05 | > 3.3e-05 | – | – | Cc1c2c(nn1C)CN(C(=O)CC1CCOCC1)Cc1ccccc1Cn1c(C(=O)O)c(CCCOc3cccc4ccccc34)c3cccc-2c31 (single isomer, unassigned; enantiomer 1) [Example 22, (−)-4,5-Dimethyl-17-[3-(naphthalen-1-yloxy)propyl]-8-(tetrahydro-2H-pyran-4-ylacetyl)-7,8,9,14-tetrahydro-5H-indolo[1,7-bc]pyrazolo[4,3-e][2,8]benzodiazacycloundecine-16-carboxylic Acid (Enantiomer 1)] | 1.7e-05 | > 3.3e-05 | – | – | –
2.8e-07 | > 3.3e-05 | – | – | > 3.3e-05 | Cc1c2c(nn1C)CN(C(=O)NCC1CCOCC1)Cc1ccccc1Cn1c(C(=O)O)c(CCCOc3cccc4ccccc34)c3cccc-2c31 (single isomer, unassigned; enantiomer 1) [Example 28, (+)-4,5-Dimethyl-17-[3-(naphthalen-1-yloxy)propyl]-8-[(tetrahydro-2H-pyran-4-ylmethyl)carbamoyl]-7,8,9,14-tetrahydro-5H-indolo[1,7-bc]pyrazolo[4,3-e][2,8]benzodiazacycloundecine-16-carboxylic Acid (Enantiomer 1)] | > 3.3e-05 | – | > 3.3e-05 | – | –
2.6e-07 | – | – | > 3.3e-05 | > 3.3e-05 | Cc1c2c(nn1C)CN(C(=O)NC1CCOCC1)Cc1ccccc1Cn1c(C(=O)O)c(CCCOc3cccc4ccccc34)c3cccc-2c31 (single isomer, unassigned; enantiomer 1) [Example 25, (+)-4,5-Dimethyl-17-[3-(naphthalen-1-yloxy)propyl]-8-(tetrahydro-2H-pyran-4-ylcarbamoyl)-7,8,9,14-tetrahydro-5H-indolo[1,7-bc]pyrazolo[4,3-e][2,8]benzodiazacycloundecine-16-carboxylic Acid (Enantiomer 1)] | > 3.3e-05 | – | > 3.3e-05 | – | –
3e-08 | 1e-05 | 2.3e-05 | – | – | Cc1c2c(nn1C)CN(C(=O)NCC1CCOCC1)Cc1ccccc1Cn1c(C(=O)O)c(CCCOc3cccc4ccccc34)c3cccc-2c31 (single isomer, unassigned; enantiomer 2) [Example 29, (−)-4,5-Dimethyl-17-[3-(naphthalen-1-yloxy)propyl]-8-[(tetrahydro-2H-pyran-4-ylmethyl)carbamoyl]-7,8,9,14-tetrahydro-5H-indolo[1,7-bc]pyrazolo[4,3-e][2,8]benzodiazacycloundecine-16-carboxylic Acid (Enantiomer 2)] | 1.4e-05 | 2.3e-05 | – | – | –
